Experimental data published in patent US5521197A, “3-<1-alkylenearyl>-4-<1,2,3,6-tetrahydropyridinyl>-and 3-<1-alkylenearyl>-4-piperidinyl-1h-indoles: new 5-HT1F agonists” (Eli Lilly and Company, priority 1994, dated 1996).
Where a name gives a salt, the structure may show the parent alone. Read-outs that look alike come from different tables or passages of the source. Values belong to the compound of their own block, whether it stands above or below them.

Columns and labels:
[1] = test system: protein extravasation in the dura; test: Inhibition of neuronal protein extravasation (trigeminal ganglion stimulation, Evans Blue in dura); assay type: in vivo, Harlan Sprague-Dawley rats or guinea pigs
[2] = target: T1, 5-HT1F receptor (Homo sapiens, UniProt P30939); test: Radioligand ([3H]5-HT) binding to the 5-HT1F receptor subtype; design: expressed in transfected cells; host or cells: Ltk- cells (membranes); settings: for inhibition at 1 µM: read-out: 5-HT1F BINDING, % displacement at 1000 nM; for Ki: [3H]5-HT displacement, transfected Ltk- cell membranes, 37° C., read-out: 5-HT1F BINDING Ki
T1 sequence (P30939 1-366): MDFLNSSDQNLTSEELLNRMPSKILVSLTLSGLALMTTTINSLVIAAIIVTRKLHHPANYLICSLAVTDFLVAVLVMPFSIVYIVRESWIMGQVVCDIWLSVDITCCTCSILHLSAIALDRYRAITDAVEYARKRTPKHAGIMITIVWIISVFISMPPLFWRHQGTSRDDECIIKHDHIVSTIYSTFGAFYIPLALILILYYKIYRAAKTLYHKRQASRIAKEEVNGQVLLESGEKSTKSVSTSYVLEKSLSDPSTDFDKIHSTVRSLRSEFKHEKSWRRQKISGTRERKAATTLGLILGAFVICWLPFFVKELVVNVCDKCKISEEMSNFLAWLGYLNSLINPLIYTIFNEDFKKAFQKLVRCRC
Procedure: The cells were washed twice with phosphate-buffered saline, scraped from the culture dishes into 5 mL of ice-cold phosphate-buffered saline, and centrifuged at 200×g for 5 minutes at 4° C. The pellet was resuspended in 2.5 mL of ice-cold Tris buffer (20 mM Tris HCl, pH=7.4 at 23° C., 5 mM EDTA) and homogenized with a Wheaton tissue grinder. The lysate was subsequently centrifuged at 200×g for 5 minutes at 4° C. to pellet large fragments which were discarded. The supernatant was collected and centrifuged at 40,000×g for 20 minutes at 4° C. The pellet resulting from this centrifugation was washed once in ice-cold Tris wash buffer and resuspended in a final buffer containing 50 mM Tris HCl and 0.5 mM EDTA, pH=7.4 at 23° C. Membrane preparations were kept on ice and utilized within two hours for the radioligand binding assays.
Saturation studies were conducted using [^3 H]5-HT at 12 different concentrations ranging from 0.5 nM to 100 nM. […] The binding profile of drugs in competition experiments was accomplished using 10-12 concentrations of compound. […] Nonspecific binding was defined in the presence of 10 μM 5-HT. Binding was initiated by the addition of 50 μL membrane homogenates (10-20 μg). The reaction was terminated by rapid filtration through presoaked (0.5% polyethyleneimine) filters using 48R Cell Brandel Harvester (Gaithersburg, Md.). Subsequently, filters were washed for 5 seconds with ice cold buffer (50 mM Tris HCl, pH=7.4 at 4° C.), dried and placed into vials containing 2.5 mL Readi-Safe (Beckman, Fullerton, Calif.) and radioactivity was measured using a Beckman LS 5000TA liquid scintillation counter. […] Binding data was analyzed by computer-assisted nonlinear regression analysis (Accufit and Accucomp, Lunden Software, Chagrin Falls, Ohio). […] All experiments were performed in triplicate. […]

[3] = test system: cephalic vascular smooth muscle; settings: cited from earlier work
[4] = test system: migraine; settings: in vivo; cited from earlier work
[5] = test system: neurogenic inflammation; settings: in vivo; cited from earlier work
[6] = iv, read-out: Inhibition of Protein Extravasation, i.v. ID50

Compound: CNS(=O)(=O)Cc1ccc2[nH]cc(CCN(C)C)c2c1 [Compound I, 3-[2-(dimethylamino)ethyl]-N-methyl-1H-indole-5-methanesulfonamide butane-1,4-dioate (1:1)]
ED50 [1, 6]: 2.6e-05 µmol/kg

Compound: Cn1cc(CCN2CCC(c3c[nH]c4ccc(F)cc34)CC2)cn1 [Compound II, 5-fluoro-3-<1-<2-<1-methyl-1H-pyrazol-4-yl>ethyl>-4-piperidinyl>-1H-indolehydrochloride]
ED50 ([1]; iv; read-out: Inhibition of Protein Extravasation, i.v. ID50): 8.6e-07 µmol/kg

Compound: Oc1ccc2[nH]cc(C3CCNCC3)c2c1 [Compound III, 5-hydroxy-3-(4-piperidinyl)-1H-indole oxalate]
ED50 [1, 6]: 8.9e-06 µmol/kg

Compound: CCN(CC)C1CCc2cccc(Cl)c2C1 (stereo not drawn) [Compound IV, 8-chloro-2-diethylamino-1,2,3,4-tetrahydronaphthalene hydrochloride]
ED50 [1, 6]: 0.00012 µmol/kg

Compound: CN(C)C1CCc2[nH]c3ccc(O)cc3c2C1 (stereo not drawn) [Compound V, 6-hydroxy-3-dimethylamino-1,2,3,4-tetrahydrocarbazole]
ED50 [1, 6]: 8.7e-06 µmol/kg

Compound: C1=C(c2c[nH]c3ccccc23)CCN(CCSc2ccccc2)C1 [Example 39, 3-<1-<2-<phenylthio>ethyl>-4-<1,2,3,6-tetrahydropyridinyl>>-1H-indole]
inhibition at 1 µM [2]: 34%

Ki ([2]; Table I): 191 nM
Compound: c1ccc(OCCN2CCC(c3c[nH]c4ccccc34)CC2)cc1 [Example 40, 3-<1-<2-phenoxyethyl>-4-piperidinyl>-1H-indole hydrochloride]

Ki ([2]; Table I): 91.4 nM
Compound: c1ccc(OCCCN2CCC(c3c[nH]c4ccccc34)CC2)cc1 [Example 41, 3-<1-<3-phenoxypropyl>-4-piperidinyl>-1H-indole hydrochloride]

Ki ([2]; Table I): 342 nM
Compound: c1ccc(SCCN2CCC(c3c[nH]c4ccccc34)CC2)cc1 [Example 42, 3-<1-<2-<phenylthio>ethyl>-4-piperidinyl>-1H-indole]

Compound: C1=C(c2c[nH]c3ccccc23)CCN(CCCCc2ccccc2)C1 [Example 43, 3-<1-<4-phenylbutyl>-4-<1,2,3,6-tetrahydropyridinyl>>-1H-indolehydrochloride]
Ki ([2]; Table I): 547 nM

Compound: C1=C(c2c[nH]c3ccccc23)CCN(Cc2ccccc2)C1 [Example 44, 3-<1-benzyl-4-<1,2,3,6-tetrahydropyridinyl>>-1H-indole hydrochloride]
Ki ([2]; Table I): 396 nM

Compound: c1ccc(CN2CCC(c3c[nH]c4ccccc34)CC2)cc1 [Example 45, 3-<1-benzyl-4-piperidinyl>-1H -indole]
Ki ([2]; Table I): 240 nM

Ki ([2]; Table I): 20.4 nM
Compound: c1ccc(CCCCN2CCC(c3c[nH]c4ccccc34)CC2)cc1 [Example 46, 3-<1-<4-phenylbutyl>-4-piperidinyl>-1H-indole hydrochloride]

Compound: C1=C(c2c[nH]c3ccccc23)CCN(CCCc2ccccc2)C1 [Example 47, 3-<1-<3-phenylpropyl>-4-<1,2,3,6-tetrahydropyridinyl>>-1H-indolehydrochloride]
inhibition at 1 µM [2]: 62%

inhibition at 1 µM ([2]; Table I, at 1000 nM): 50%
Compound: c1ccc(CCCN2CCC(c3c[nH]c4ccccc34)CC2)cc1 [Example 48, 3-<1-<3-phenylpropyl>-4-piperidinyl>-1H-indole hydrochloride]

Compound: CNS(=O)(=O)Cc1ccc2[nH]cc(CCN(C)C)c2c1 [sumatriptan]
contraction of cephalic vascular smooth muscle [3]: contract cephalic vascular smooth muscle
effectiveness in the treatment of migraine [4]: effective in the treatment of migraine
blockade of neurogenic inflammation [5]: blocked
